Assays:
[1] = target: T1, Free fatty acid receptor 4 (Homo sapiens) (UniProt Q5NUL3); assay: Agonist activity at human GPR120 short isoform expressed in CHOK1 cells assessed as increase in IP1 accumulation at 10 uM after 60 mins by HTRF assay; type: functional, cell-based; details: CHO-K1
T1 sequence (whole entry): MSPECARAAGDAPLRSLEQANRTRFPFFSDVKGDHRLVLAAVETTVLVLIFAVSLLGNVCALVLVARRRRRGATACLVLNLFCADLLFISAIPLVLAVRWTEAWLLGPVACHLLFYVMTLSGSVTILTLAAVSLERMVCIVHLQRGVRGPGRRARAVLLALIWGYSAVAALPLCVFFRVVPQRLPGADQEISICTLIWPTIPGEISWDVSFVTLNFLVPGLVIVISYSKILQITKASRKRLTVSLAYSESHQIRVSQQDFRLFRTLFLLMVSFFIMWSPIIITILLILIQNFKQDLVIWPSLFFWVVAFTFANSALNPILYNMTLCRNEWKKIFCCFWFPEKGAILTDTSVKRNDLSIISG

[2] = target: Free fatty acid receptor 1 (Homo sapiens, UniProt O14842); assay: Agonist activity at human GPR40 expressed in HEK293 cells assessed as increase in IP1 accumulation after 60 mins by HTRF assay; type: functional, cell-based
[3] = Volume of distribution at steady state in rat plasma at 0.1 mg/kg administered as iv casette dose by LC/MS/MS analysis; type: ADME, organism-based; details: read-out: Vdss
[4] = Intrinsic clearance in rat plasma at 0.1 mg/kg administered as iv casette dose by LC/MS/MS analysis; type: ADME, organism-based; details: in vivo
Mus musculus = assay: Glucose lowering effect in C57BL/6 transverse aortic constriction mouse assessed as reduction in blood glucose pretreated for 60 mins via oral gavage followed by dextrose challenge measured up to 120 mins post glucose challenge by OGTT; type: functional
[5] = Plasma concentration in C57BL/6 transverse aortic constriction mouse at 10 mg/kg, po via gavage measured at 3 hrs; type: ADME, organism-based; details: C57BL/6, mouse
[6] = Plasma concentration in C57BL/6 transverse aortic constriction mouse at 30 mg/kg, po via gavage measured at 3 hrs; type: ADME, organism-based; details: C57BL/6, mouse
[7] = target: Free fatty acid receptor 1 (Mus musculus, UniProt Q76JU9); assay: Agonist activity at mouse GPR40 assessed as increase in IP1 accumulation after 60 mins by HTRF assay; type: functional
[8] = Inhibition of IKr (unknown origin) expressed in HEK293 cells; type: cell-based, Homo sapiens
[9] = target: Sodium channel protein type 5 subunit alpha (Homo sapiens, UniProt Q14524); assay: Inhibition of Nav1.5 (unknown origin)
[10] = target: Voltage-dependent L-type calcium channel subunit alpha-1C (Homo sapiens, UniProt Q13936); assay: Inhibition of Cav1.2 (unknown origin)
Cytochrome P450 3A4 = Cytochrome P450 3A4 (Homo sapiens, UniProt P08684); assay: Inhibition of human CYP3A4; type: ADME
Cytochrome P450 2D6 = Cytochrome P450 2D6 (Homo sapiens, UniProt P10635); assay: Inhibition of human CYP2D6; type: ADME
[11] = target: T2, Peroxisome proliferator-activated receptor gamma (Homo sapiens) (UniProt P37231); assay: Activity at PPARgamma (unknown origin)
T2 sequence (whole entry): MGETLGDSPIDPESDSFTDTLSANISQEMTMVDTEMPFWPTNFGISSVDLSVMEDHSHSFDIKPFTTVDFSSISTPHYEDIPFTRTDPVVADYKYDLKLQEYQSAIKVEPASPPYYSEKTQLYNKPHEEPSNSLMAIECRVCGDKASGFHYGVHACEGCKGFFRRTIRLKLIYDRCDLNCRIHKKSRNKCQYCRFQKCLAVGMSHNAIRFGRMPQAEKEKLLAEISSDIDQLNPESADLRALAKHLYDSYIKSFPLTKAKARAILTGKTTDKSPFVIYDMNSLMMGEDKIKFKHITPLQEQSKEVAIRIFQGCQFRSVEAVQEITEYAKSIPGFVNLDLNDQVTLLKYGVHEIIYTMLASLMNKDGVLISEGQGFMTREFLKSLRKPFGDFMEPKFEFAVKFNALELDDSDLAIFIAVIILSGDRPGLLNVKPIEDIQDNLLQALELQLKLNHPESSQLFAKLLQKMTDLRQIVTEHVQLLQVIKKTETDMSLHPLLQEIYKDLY

[12] = Clearance in rat plasma at 1 mg/kg, iv or 2 mg/kg, po by LC/MS/MS analysis; type: ADME, organism-based
[13] = Volume of distribution at steady state in rat plasma at 1 mg/kg, iv or 2 mg/kg, po by LC/MS/MS analysis; type: ADME, organism-based; details: read-out: Vdss
[14] = Terminal half life in rat plasma at 1 mg/kg, iv or 2 mg/kg, po by LC/MS/MS analysis; type: ADME, organism-based; details: read-out: beta t1/2 (converted)
[15] = Oral bioavailability in rat plasma at 2 mg/kg by LC/MS/MS analysis; type: ADME, organism-based
[16] = Intrinsic clearance in rat plasma at 1 mg/kg, iv or 2 mg/kg, po by LC/MS/MS analysis; type: ADME, organism-based; details: in vivo
[17] = AUC in mouse plasma at 2 mg/kg, iv by LC/MS/MS analysis; type: ADME, organism-based
[18] = Clearance in mouse plasma at 2 mg/kg, iv or 30 mg/kg, po by LC/MS/MS analysis; type: ADME, organism-based
[19] = Volume of distribution at steady state in mouse plasma at 2 mg/kg, iv or 30 mg/kg, po by LC/MS/MS analysis; type: ADME, organism-based; details: read-out: Vdss
[20] = Terminal half life in mouse plasma at 2 mg/kg, iv or 30 mg/kg, po by LC/MS/MS analysis; type: ADME, organism-based; details: read-out: beta t1/2 (converted)
[21] = Oral bioavailability in mouse plasma at 30 mg/kg by LC/MS/MS analysis; type: ADME, organism-based
[22] = Protein binding in mouse plasma at 2 mg/kg, iv or 30 mg/kg, po by LC/MS/MS analysis; type: ADME, organism-based; details: read-out: PPB (converted)
[23] = Volume of distribution at steady state in rhesus monkey plasma at 0.5 mg/kg, iv or 1 mg/kg, po by LC/MS/MS analysis; type: ADME, organism-based, Macaca mulatta; details: read-out: Vdss
[24] = Terminal half life in rhesus monkey plasma at 0.5 mg/kg, iv or 1 mg/kg, po by LC/MS/MS analysis; type: ADME, organism-based, Macaca mulatta; details: read-out: beta t1/2 (converted)
[25] = Protein binding in rhesus monkey plasma at 0.5 mg/kg, iv or 1 mg/kg, po by LC/MS/MS analysis; type: ADME, organism-based, Macaca mulatta; details: read-out: PPB (converted)
[26] = Intrinsic clearance in rhesus monkey plasma at 0.5 mg/kg, iv or 1 mg/kg, po by LC/MS/MS analysis; type: ADME, organism-based, Macaca mulatta; details: in vivo
[27] = Plasma concentration in C57BL/6 mouse oral glucose tolerance test at 3 mg/kg, po via gavage measured at 3 hrs

Chain of Cytochrome P450 3A4 (P08684 whole entry): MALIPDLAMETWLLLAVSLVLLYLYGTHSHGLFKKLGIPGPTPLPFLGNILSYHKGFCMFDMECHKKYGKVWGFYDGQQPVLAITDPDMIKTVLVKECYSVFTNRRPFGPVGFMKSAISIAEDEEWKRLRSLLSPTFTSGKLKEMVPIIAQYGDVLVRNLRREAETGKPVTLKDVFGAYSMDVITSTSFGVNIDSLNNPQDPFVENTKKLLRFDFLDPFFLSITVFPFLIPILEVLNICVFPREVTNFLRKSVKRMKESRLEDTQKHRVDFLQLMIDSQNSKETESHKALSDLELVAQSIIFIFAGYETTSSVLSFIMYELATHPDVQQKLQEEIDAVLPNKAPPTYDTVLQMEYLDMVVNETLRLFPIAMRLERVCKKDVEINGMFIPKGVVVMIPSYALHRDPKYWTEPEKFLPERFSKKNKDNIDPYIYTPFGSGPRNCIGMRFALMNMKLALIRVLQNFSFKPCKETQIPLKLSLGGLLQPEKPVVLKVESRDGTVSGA
Chain of Voltage-dependent L-type calcium channel subunit alpha-1C (Q13936 whole entry): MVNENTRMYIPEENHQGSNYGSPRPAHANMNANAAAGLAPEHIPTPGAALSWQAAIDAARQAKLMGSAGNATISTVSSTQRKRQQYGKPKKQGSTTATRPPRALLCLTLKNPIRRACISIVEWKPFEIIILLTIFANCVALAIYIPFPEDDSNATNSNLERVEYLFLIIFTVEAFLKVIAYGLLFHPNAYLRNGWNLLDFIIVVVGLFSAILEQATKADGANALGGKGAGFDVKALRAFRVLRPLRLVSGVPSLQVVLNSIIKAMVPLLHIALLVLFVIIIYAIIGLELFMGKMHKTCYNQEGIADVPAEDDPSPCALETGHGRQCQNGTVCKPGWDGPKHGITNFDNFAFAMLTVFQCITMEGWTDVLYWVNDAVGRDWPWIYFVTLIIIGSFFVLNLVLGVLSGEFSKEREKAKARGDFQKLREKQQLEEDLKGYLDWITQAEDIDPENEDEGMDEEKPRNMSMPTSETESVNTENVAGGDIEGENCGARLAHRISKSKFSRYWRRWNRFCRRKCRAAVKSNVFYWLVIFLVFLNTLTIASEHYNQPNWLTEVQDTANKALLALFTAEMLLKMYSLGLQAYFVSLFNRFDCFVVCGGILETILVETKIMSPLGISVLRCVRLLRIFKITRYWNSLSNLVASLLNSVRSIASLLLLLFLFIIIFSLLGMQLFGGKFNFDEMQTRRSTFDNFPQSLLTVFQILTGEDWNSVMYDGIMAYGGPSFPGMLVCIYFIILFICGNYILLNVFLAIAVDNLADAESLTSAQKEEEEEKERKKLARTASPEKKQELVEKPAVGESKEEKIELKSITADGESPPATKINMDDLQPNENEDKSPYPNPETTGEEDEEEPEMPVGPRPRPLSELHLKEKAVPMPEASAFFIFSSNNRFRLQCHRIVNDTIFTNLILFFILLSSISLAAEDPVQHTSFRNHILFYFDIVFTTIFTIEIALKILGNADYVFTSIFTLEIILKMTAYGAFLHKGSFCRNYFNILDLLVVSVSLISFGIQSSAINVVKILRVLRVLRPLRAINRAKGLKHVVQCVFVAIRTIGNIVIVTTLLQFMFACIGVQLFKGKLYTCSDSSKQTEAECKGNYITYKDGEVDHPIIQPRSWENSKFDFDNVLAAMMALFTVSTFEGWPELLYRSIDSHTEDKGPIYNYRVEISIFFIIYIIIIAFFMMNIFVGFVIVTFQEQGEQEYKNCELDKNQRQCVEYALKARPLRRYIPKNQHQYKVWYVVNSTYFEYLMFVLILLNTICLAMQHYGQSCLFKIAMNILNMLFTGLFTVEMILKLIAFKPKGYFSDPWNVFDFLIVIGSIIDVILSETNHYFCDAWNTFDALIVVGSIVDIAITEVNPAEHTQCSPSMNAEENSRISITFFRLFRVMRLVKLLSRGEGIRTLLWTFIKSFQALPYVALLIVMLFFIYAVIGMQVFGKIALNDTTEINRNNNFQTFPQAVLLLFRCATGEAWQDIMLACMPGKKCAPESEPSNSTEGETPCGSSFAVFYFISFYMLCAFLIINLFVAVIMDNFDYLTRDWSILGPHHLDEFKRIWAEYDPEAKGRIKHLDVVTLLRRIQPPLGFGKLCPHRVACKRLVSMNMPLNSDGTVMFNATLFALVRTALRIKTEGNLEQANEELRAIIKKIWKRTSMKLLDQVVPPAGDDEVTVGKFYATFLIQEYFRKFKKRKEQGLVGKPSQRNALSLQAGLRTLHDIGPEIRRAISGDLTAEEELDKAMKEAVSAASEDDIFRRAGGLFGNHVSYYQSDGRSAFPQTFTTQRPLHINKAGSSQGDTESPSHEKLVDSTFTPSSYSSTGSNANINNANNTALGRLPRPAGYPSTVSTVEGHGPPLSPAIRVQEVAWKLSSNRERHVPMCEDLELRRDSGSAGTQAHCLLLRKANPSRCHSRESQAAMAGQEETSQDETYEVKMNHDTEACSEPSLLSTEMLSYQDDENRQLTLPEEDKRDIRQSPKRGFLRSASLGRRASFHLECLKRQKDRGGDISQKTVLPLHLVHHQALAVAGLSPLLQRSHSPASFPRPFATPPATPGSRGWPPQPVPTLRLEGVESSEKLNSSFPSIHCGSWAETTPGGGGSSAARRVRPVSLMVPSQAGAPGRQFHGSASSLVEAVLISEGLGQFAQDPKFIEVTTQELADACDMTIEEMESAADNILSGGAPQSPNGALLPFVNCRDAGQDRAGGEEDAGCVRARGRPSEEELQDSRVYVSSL
Chain of Free fatty acid receptor 1 (Mus musculus, UniProt Q76JU9) (Q76JU9 whole entry): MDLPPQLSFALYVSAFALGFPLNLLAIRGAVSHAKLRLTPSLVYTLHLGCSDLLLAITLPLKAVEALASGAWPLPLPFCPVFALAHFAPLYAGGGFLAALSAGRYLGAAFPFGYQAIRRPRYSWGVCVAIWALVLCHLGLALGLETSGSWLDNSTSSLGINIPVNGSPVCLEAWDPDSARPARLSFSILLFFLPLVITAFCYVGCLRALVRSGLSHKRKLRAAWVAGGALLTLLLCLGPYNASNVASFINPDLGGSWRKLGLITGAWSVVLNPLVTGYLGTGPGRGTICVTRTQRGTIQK
Chain of Free fatty acid receptor 1 (Homo sapiens, UniProt O14842) (O14842 whole entry): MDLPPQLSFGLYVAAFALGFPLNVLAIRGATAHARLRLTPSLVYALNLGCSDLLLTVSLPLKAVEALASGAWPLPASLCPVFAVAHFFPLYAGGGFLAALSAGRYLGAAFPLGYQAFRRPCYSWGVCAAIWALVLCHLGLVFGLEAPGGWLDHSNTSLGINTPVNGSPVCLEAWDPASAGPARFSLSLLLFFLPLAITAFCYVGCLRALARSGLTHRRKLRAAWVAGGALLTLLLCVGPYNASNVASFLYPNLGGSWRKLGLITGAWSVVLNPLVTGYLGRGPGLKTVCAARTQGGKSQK
Chain of Cytochrome P450 2D6 (P10635 whole entry): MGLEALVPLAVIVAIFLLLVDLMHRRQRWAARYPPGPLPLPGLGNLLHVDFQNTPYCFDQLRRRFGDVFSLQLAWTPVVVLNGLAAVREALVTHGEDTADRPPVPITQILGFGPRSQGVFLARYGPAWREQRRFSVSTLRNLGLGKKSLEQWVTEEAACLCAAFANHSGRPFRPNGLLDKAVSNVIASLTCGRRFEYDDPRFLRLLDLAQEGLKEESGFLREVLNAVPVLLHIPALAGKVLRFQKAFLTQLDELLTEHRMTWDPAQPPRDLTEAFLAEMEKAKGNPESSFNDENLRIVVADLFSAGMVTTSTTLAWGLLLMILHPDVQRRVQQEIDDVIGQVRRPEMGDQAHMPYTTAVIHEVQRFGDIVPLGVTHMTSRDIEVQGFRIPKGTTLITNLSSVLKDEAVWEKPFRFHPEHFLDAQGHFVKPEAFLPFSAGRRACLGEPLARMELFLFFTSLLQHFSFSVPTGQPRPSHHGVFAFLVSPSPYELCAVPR

## CO[C@H]1C[C@H](Oc2cc(F)c(F)c(-c3ccc4c(c3)CC[C@H](CCC(=O)O)O4)n2)C1
[1]
  Activity: > 50%
[2]
  EC50: > 10 µM
[3]
  Vd: 0.24 L/kg
[4]
  CL: 560 mL/min/kg
Mus musculus
  Activity: Dose-dependent effect
Mus musculus; C57BL/6, Blood, read-out: MED
  minimal effective dose: 10 mg/kg
[5]
  concentration at 3 h: 1170 nM
[6]
  concentration at 3 h: 3120 nM
[7]
  EC50: > 10 µM
[8]
  IC50: > 60 µM
[9]
  IC50: 27 µM
[10]
  IC50: 28 µM
Cytochrome P450 3A4
  IC50: > 50 µM
Cytochrome P450 2D6
  IC50: > 50 µM
[11]
  Activity: > 10 µM
[12]
  clearance: 1.1 mL/min/kg
[13]
  Vd: 0.3 L/kg
[14]
  half-life: 4.6 h
[15]
  bioavailability: 93%
[16]
  CL: 470 mL/min/kg
[17]
  AUC: 8.1 µM·h
[18]
  clearance: 9.9 mL/min/kg
[19]
  Vd: 1.4 L/kg
[20]
  half-life: 3 h
[21]
  bioavailability: 76%
[22]
  fraction unbound: 0.0033
[23]
  Vd: 0.27 L/kg
[24]
  half-life: 9.8 h
[25]
  fraction unbound: 0.0022
[26]
  CL: 150 mL/min/kg
[27]
  concentration at 3 h: 750 nM

— ChEMBL document CHEMBL3871307, “Discovery of Chromane Propionic Acid Analogues as Selective Agonists of GPR120 with in Vivo Activity in Rodents” (ACS Med Chem Lett, 2017)
